We go through 7 compounds from PubChem BioAssay (NCI).

What all share (test): NCI-60 cell line screen, 48 h
Test [1] deals with NCI-H226 lung.
In test [2] the test system is SK-MEL-5 melanoma.
Test [3] has as its system TK-10 renal.
Test [4] has as its system SK-OV-3 ovarian.
Test [5] concerns PC-3 prostate.
Test [6] concerns MDA-MB-231 breast.
The subject of test [7] is HOP-62 NSCLC.
Test [8] relates to BT-549 breast.
In test [9] the test system is SN12C renal.
Test [10] deals with SNB-19 CNS.
In test [11] the test system is T-47D breast.
The test system of test [12] is HT29 colon.
The test system of test [13] is U251 CNS.
For test [14], the system named is NCI-H522 lung.
For test [15], the system named is SR leukemia.
Test [16] has as its system K-562 leukemia.
For test [17], the system named is UACC-62 melanoma.
Test [18] relates to MDA-N.
Test [19] concerns CCRF-CEM leukemia.
The subject of test [20] is 786-0 renal.

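Dose response: 5 concentrations. Exposure: 48 h. Format: 96-well plates. Endpoint: linear interpolation; highest concentration if not reached. TGI marks complete inhibition of growth.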

As for `O=C(O)CN1CCN2CCOCCOCCN(CC1)CCN(CC(=O)O)CC2`, the TGI in test [1], in test [2], in test [3], in test [4], in test [5] and in [6] was more than 100 µM each time. The TGI in test [7], in [8], in test [9], in [10], in test [11] and in test [12] was more than 100 µM throughout. Also, the TGI in [13], in [14], in test [15], in [16], in [17] and in test [18] was more than 100 µM in each case. Also, the TGI in test [19] and in test [20] was more than 100 µM in each case.
Consider `CCOP(=O)(CCCC(O)CNc1cc(Cl)nc(N)n1)OCC` (centres undefined), for which the TGI in test [1], in test [2], in [3], in test [4], in test [5] and in test [6] was more than 100 µM in each case. In addition, the TGI in test [7], in test [8], in test [9], in test [11], in [12] and in test [13] was more than 100 µM each time. The TGI in test [14], in test [15], in [16], in test [17], in test [18] and in [19] was more than 100 µM throughout. The compound further returned a TGI in [20] of more than 100 µM.
Regarding `CC(C)(C)c1cc(C2NCCO2)cc(C(C)(C)C)c1O` (centres undefined), the TGI in test [1] is more than 100 µM; in [2], more than 100 µM; in test [3] it was more than 100 µM; in [4] it was more than 100 µM; in test [5], more than 100 µM; in test [6], 54.8 µM. Further, the TGI in test [7] is more than 100 µM; in test [8], more than 100 µM; in test [9] it was more than 100 µM; in test [11], 27.6 µM; in test [12], more than 100 µM; in test [13] it was more than 100 µM. Besides, the TGI in test [14], in [15], in test [16], in [17], in test [18] and in test [19] was more than 100 µM in each case. In addition, the TGI in [20] was more than 100 µM.
For the compound `O=S1CCS(=O)CCS(=O)CC1` (centres undefined), the TGI in test [2], in [3], in test [4], in test [5], in test [6] and in [7] was more than 100 µM throughout. Besides, the TGI in [8], in [9], in [10], in test [11], in test [12] and in [13] was more than 100 µM in each case. In addition, the TGI in test [14], in [15], in test [16], in test [17], in test [18] and in test [19] was more than 100 µM each time. Besides, the TGI in test [20] is more than 100 µM.
As for `COc1cc(CNc2ccc3nc4n(c(=O)c3c2)CCCCC4)cc(OC)c1OC`, the TGI in test [1] was more than 100 µM; in test [2], 50.8 µM; in test [3], more than 100 µM; in [4], more than 100 µM; in [5], more than 100 µM; in test [6], more than 100 µM. Moreover, the TGI was more than 100 µM in [7]; 71.6 µM in test [8]; more than 100 µM in [9]; more than 100 µM in [11]; more than 100 µM in test [12]; more than 100 µM in test [13]. Further, the TGI in test [14], in [15], in test [16], in test [17], in test [18] and in test [19] was more than 100 µM each time. The compound further registered a TGI in test [20] of more than 100 µM.
`CCN1CCN(c2ccc(Nc3ccnc4ccc5c(nnn5C)c34)cc2)CC1`: the TGI turned out to be 23 µM in [2]; 45.6 µM in test [3]; 32.2 µM in test [4]; 17.7 µM in [5]; 27.2 µM in test [6]; 17.4 µM in test [7]. For the same compound, the TGI in test [8] came out at 36.3 µM; in [9] it was 16 µM; in [10] it was 15.1 µM; in [11], 38.3 µM; in test [12], 72.4 µM; in test [13] it was 19 µM. The TGI is 6.21 µM in [14]; 15.8 µM in [15]; 28.2 µM in test [16]; 27.1 µM in test [17]; 14.4 µM in [18]; 54.7 µM in [19]. In addition, in test [20], the TGI is 15.9 µM.
As to `FC(F)(Sc1ccccn1)c1nc2ccccc2o1`, the TGI in test [1], in [2], in [3], in [4], in test [5] and in test [6] was more than 100 µM each time. Moreover, the TGI in test [7], in test [8], in test [9], in [11], in test [12] and in test [13] was more than 100 µM throughout. Besides, the TGI in test [14], in test [15], in [16], in test [17], in [18] and in test [19] was more than 100 µM in each case. The TGI in [20] is more than 100 µM.
